Experimental data as given in the supplement of paper PMC10307832.

Columns and labels:
Assay in all cases: relative viability (nuclei count vs DMSO), 5 days (fraction); higher = more cells survive
[1] = compound: CCn1c(-c2nonc2N)nc2cnc(Oc3cccc(NC(=O)c4ccc(OCCN5CCOCC5)cc4)c3)cc21 + Cc1nc(Nc2ncc(C(=O)Nc3c(C)cccc3Cl)s2)cc(N2CCN(CCO)CC2)n1 [Dasatinib] (partner 0.075 µM)
Method in brief: (§1)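 Values are medians from duplicate plates. Each reflects relative viability, defined as the nuclei count of treated wells over that of vehicle wells. Lung cancer cell lines in 1536-well plates were pin-tool dosed one day after seeding with one drug alone or with a fixed anchor-drug dose plus five library-drug doses (not always all listed) in √10 steps, then fixed, stained and imaged at 4× after 5 days.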

[2] = compound: CCC1=CN=CN=C1N2CCN(CC2)CC3=NC4=C(N3)C=C(C=C4)C(F)(F)F + Cc1cc(Nc2cc(N3CCN(C)CC3)nc(Sc3ccc(NC(=O)C4CC4)cc3)n2)n[nH]1 [Tozasertib] (partner 0.1 µM)
Method in brief: as §1

[3] = compound: CCn1c(-c2nonc2N)nc2cnc(Oc3cccc(NC(=O)c4ccc(OCCN5CCOCC5)cc4)c3)cc21 + Nc1ncn([C@H]2C[C@H](O)[C@@H](CO)O2)c(=O)n1 [Decitabine] (partner 2 µM)
Method in brief: as §1

Mirin + Foretinib = compound: N=C1NC(=O)/C(=C/c2ccc(O)cc2)S1 [Mirin] + COc1cc2c(Oc3ccc(NC(=O)C4(C(=O)Nc5ccc(F)cc5)CC4)cc3F)ccnc2cc1OCCCN1CCOCC1 [Foretinib] (partner 0.25 µM)
Method in brief: as §1

Cell Line: UMC-11
- relative viability ([1]; first compound 0.04 µM): 0.37
- relative viability ([1]; first compound 0.1265 µM): 0.415
- relative viability ([1]; first compound 0.4 µM): 0.337
- relative viability ([1]; first compound 1.265 µM): 0.214
- relative viability ([1]; first compound 4 µM): 0.182
- relative viability ([2]; first compound 0.04 µM): 0.197
- relative viability ([2]; first compound 0.1265 µM): 0.216
- relative viability ([2]; first compound 0.4 µM): 0.216
- relative viability ([2]; first compound 1.265 µM): 0.204
- relative viability ([2]; first compound 4 µM): 0.214
- relative viability ([3]; first compound 0.04 µM): 0.596
- relative viability ([3]; first compound 0.1265 µM): 0.528
- relative viability ([3]; first compound 0.4 µM): 0.423
- relative viability ([3]; first compound 1.265 µM): 0.125
- relative viability ([3]; first compound 4 µM): 0.269
- relative viability (Mirin + Foretinib; first compound 0.25 µM): 1.03
- relative viability (Mirin + Foretinib; first compound 0.7906 µM): 1.05
- relative viability (Mirin + Foretinib; first compound 2.5 µM): 1
- relative viability (Mirin + Foretinib; first compound 7.906 µM): 0.918
- relative viability (Mirin + Foretinib; first compound 25 µM): 0.61
